From publication PMC9821843, “Powerful Potential of Polyfluoroalkyl-Containing 4-Arylhydrazinylidenepyrazol-3-ones for Pharmaceuticals” (Molecules, 2022)
Values after ≈ are worked out from the molar mass of the structure shown. Like-named read-outs stand apart in the source and are kept apart here.

Legend:
[1] = Acute toxicity evaluation in mice (ip); conditions: CD-1, mouse, in vivo, 300 mg/kg
Experimental: The toxicity evaluation was performed on CD-1 mice. […] The tested compounds in 1% starch mucilage were injected intraperitoneally into three mice. Then, animals were observed during 14 days, the number of deaths was counted and % of viability calculated.

[2] = biological target: T1, equine serum butyrylcholinesterase (BChE, EC 3.1.1.8) (Equus caballus, UniProt P81908); assay: Inhibition of equine serum butyrylcholinesterase (Ellman assay); type: biochemical; conditions: read-out: Inhibition % at 20 µM, Equine BChE
T1 construct: equine serum butyrylcholinesterase (BChE, EC 3.1.1.8); purchased Sigma-Aldrich (Saint Louis, MO, USA); host or cells: equine serum
Description: The following enzymes were purchased from Sigma-Aldrich (Saint Louis, MO, USA): porcine liver carboxylesterase (CES, EC 3.1.1.1), human erythrocyte acetylcholinesterase (AChE, EC 3.1.1.7) and equine serum butyrylcholinesterase (BChE, EC 3.1.1.8). Substrates for CES, AChE and BChE were 4-nitrophenyl acetate (4-NPA), acetylthiocholine iodide (ATCh) and butyrylthiocholine iodide (BTCh), respectively, and the colorimetric reagent for the AChE and BChE assays was 5,5’-dithio-bis-(2-nitrobenzoic acid) (DTNB) (Sigma-Aldrich). All the kinetic experiments were performed under standard conditions, according to the protocol of IPAC RAS for a reversible inhibitors study.
Final concentrations of reactants were 0.33 mM DTNB, 0.02 unit/mL of AChE or BChE and 1 mM of substrate (ATCh or BTCh, respectively). Reagent blanks consisted of reaction mixtures without enzyme to assess non-enzymatic hydrolysis of substrates.
Test compounds were dissolved in DMSO. Reaction mixtures contained a final DMSO concentration of 2% (v/v). […] Substrate was then added and residual enzyme activity relative to an inhibitor-free control was measured using a Bio-Rad Benchmark Plus microplate reader (Marnes-la-Coquette, France).
Measurements were performed in a Bio-Rad Benchmark Plus microplate reader. Each experiment was performed in triplicate. Plots, linear regressions and values of IC50, were determined using Origin 6.1 for Windows, OriginLab (Northampton, MA, USA).

[3] = Oxygen radical absorbance capacity (ORAC-FL) assay; conditions: n.a. = inactive; i.t.s. = interferes with test system
Description: We evaluated the primary antioxidant activity of synthesized 4-AHPs 5–9 in comparison with their non-fluorinated analogues 9a,b using three standard tests: ABTS, FRAP (ferric reducing antioxidant power) and ORAC (oxygen radical absorbance capacity) assays. The ABTS assay evaluates the binding of a model ABTS radical cation (ABTS^•+), which is realized by the mechanism of single electron transfer (SET) and/or hydrogen atom transfer (HAT). The FRAP assay measures the ability of compounds to reduce the ferric 2,4,6-tripyridyl-s-triazine complex [Fe(TPTZ)2]^3+ to [Fe(TPTZ)2]^2+, which occurs exclusively by the SET mechanism. The ORAC-FL assay measures the oxidative degradation of the fluorescent molecule (FL – fluorescein) after being mixed with a free peroxyl radical generator such as 2,2′-azobis-(2-methylpropionamidine) dihydrochloride (AAPH) in the presence of antioxidant (tested compound). The ORAC-FL test describes the antioxidants’ ability to yield the hydrogen atom and, consequently, it is a HAT-based assay. Trolox was used in all tests as a reference antioxidant: the antioxidant activity of the test compounds was referred to the activity of Trolox. The well-known antioxidant Edaravone was also used for comparison.
The ORAC assay was performed according to the known method, with minor variations and described by us recently.

Sprague-Dawley (SD) rats = assay: Hot plate test (analgesic activity); type: in vivo; conditions: ip; for change in vivo at 15 mg/kg: Rattus norvegicus
Experimental: The hot plate test was conducted according to established guidelines on Sprague-Dawley (SD) rats (3 male and 3 female rodents per group). The compounds were intraperitoneally administered in the form of suspensions in 1% starch mucilage. Negative control group animals received vehicle only (1% starch mucilage). Diclofenac sodium (Hemofarm, Vršac, Serbia, 10 mg/kg in 1% starch mucilage solution) or metamizole sodium (PAO Biosynthesis, Sun Pharma, Penza, Russia, 15 mg/kg in 1% starch mucilage solution) were used as reference drugs. One and two hours after the injection, rats were placed on an electrically heated to 50 °C plate (Hot plate 60,200 series, TSE-systems, Bad Homburg, Germany) in a Plexiglas cylindrical restrainer (19 cm diameter × 30 cm). The nociceptive response time was measured by observing the appearance of rats’ movements (e.g., jumping, hind paw licking or shaking). Maximal cutoff time was set as 30 s regardless of the response in order to preclude skin damage.
Differences between the values of the latency period for the treated (experimental) and control groups of animals were considered significant at p ≤ 0.05.

[4] = system: Trichophyton rubrum RCPF F 1408; assay: Antifungal susceptibility testing, T. rubrum; conditions: Trichophyton rubrum, RCPFF1408, read-out: MIC for fungi strains inhibition, T. rubrum
Description: (§1) The solvent was DMSO. […] In each test, a growth control and a sterility control were used.

[5] = system: Microsporum canis RCPF F 1643/1585; assay: Antifungal susceptibility testing, M. canis; conditions: Microsporum canis, RCPFF1643/1585, read-out: MIC for fungi strains inhibition, M. canis
Description: as §1

[6] = ABTS radical cation scavenging activity assay; parameters: key to ABTS•+-scavenging activity, TEAC (trolox equivalent antioxidant capacity): TEAC = ratio of compound slope to Trolox slope vs ABTS absorbance; conditions: mean ± SEM; for ABTS•+-scavenging activity, TEAC (trolox equivalent antioxidant capacity): n.a. = inactive
Experimental: Radical scavenging activity of the compounds was evaluated by the ABTS radical cation (ABTS^•+) scavenging assay by the ability of the compounds to decolorize the ABTS^•+ solution [112] with some modifications. Trolox was used as a reference standard. Edaravone was used as the comparison compound. All tested compounds and standards were dissolved in DMSO. ABTS (2,2′-azinobis-(3-ethylbenzothiazoline-6-sulfonic acid)) was purchased from Tokyo Chemical Industry Co. Ltd. (Tokyo, Japan). Potassium persulfate (di-potassium peroxdisulfate), Trolox® (6-hydroxy-2,5,7,8-tetramethychroman-2-carboxylic acid), ascorbic acid, DMSO and HPLC-grade ethanol were obtained from Sigma-Aldrich Chemical Co. Aqueous solutions were prepared using deionized water.
The solution of ABTS^•+ was produced by mixing 7 mM ABTS aqueous solution with 2.45 mM potassium persulfate aqueous solution in equal quantities and allowing them to react for 12–16 h at room temperature in the dark. Radical scavenging capacity of the compounds was analyzed by mixing 10 μL of compound with 240 μL of ABTS^•+ working solution in ethanol (100 μM final concentration), and after 1 h of incubation at 30 °C the decrease in absorbance was measured spectrophotometrically at 734 nm using a Bio-Rad xMark microplate UV/VIS spectrophotometer (Bio-Rad, Hercules, CA, USA). The compounds were tested in the concentration range of 5 × 10^–7–4 × 10^–4 M. Ethanol blanks were run in each assay. Values were obtained from five replicates of each sample and three independent experiments.
Antioxidant activity was calculated as Trolox equivalent antioxidant capacity (TEAC values), consisting of the ratio between the slopes obtained from the linear correlation for concentrations of the tested compounds and Trolox with absorbance of ABTS radical. For the test compounds, which reduce ABTS^•+ absorbance by more than 60% at 100 µM, we also determined IC50 values as 50% reduction of the ABTS radical. The calculations were carried out using Origin 6.1 for Windows. Results were presented as mean ± SEM, calculated using GraphPad Prism version 6.05 for Windows, GraphPad Software.

[7] = system: Candida albicans RCPF Y 401/NCTC 885/653; assay: Antifungal susceptibility testing, C. albicans; conditions: NCTC885, read-out: MIC for fungi strains inhibition, C. albicans
Description: as §1

[8] = system: Neisseria gonorrhoeae ATCC 49226/NCTC 12700; assay: Antibacterial activity against Neisseria gonorrhoeae; type: cell-based; conditions: read-out: MIC against Neisseria gonorrhoeae
Experimental: Antibacterial activity testing was done on the growth medium Difco GC medium base (Becton Dickinson, Franklin Lakes, NJ, USA) supplemented with 1% IsoVitaleX. Dilutions of chemical compounds were carried out in the range of 250–0.12 μg/mL in 24 well sterile plates (Sarstedt, Germany). Daily cultures of control bacterial strains were identified on a VITEK MS analyzer (BioMérieux, Marcy-l’Étoile, France) by MALDI-TOF mass spectrometry. The inoculation dose of N. gonorrhoeae inoculum was 10^5 CFU/mL.

[9] = system: Epidermophyton floccosum RCPF F 1659/17; assay: Antifungal susceptibility testing, E. floccosum; conditions: Epidermophyton floccosum, RCPFF1659/17, read-out: MIC for fungi strains inhibition, E. floccosum
Description: as §1

[10] = hot plate test, rats, dose 15 mg/kg, 2 h, n.a. = inactive (p > 0.05), read-out: Latent Period Prolongation, % 2 h
[11] = hot plate test, rats, dose 15 mg/kg, 1 h, n.a. = inactive (p > 0.05), read-out: Latent Period Prolongation, % 1 h

T1 sequence (P81908 whole entry): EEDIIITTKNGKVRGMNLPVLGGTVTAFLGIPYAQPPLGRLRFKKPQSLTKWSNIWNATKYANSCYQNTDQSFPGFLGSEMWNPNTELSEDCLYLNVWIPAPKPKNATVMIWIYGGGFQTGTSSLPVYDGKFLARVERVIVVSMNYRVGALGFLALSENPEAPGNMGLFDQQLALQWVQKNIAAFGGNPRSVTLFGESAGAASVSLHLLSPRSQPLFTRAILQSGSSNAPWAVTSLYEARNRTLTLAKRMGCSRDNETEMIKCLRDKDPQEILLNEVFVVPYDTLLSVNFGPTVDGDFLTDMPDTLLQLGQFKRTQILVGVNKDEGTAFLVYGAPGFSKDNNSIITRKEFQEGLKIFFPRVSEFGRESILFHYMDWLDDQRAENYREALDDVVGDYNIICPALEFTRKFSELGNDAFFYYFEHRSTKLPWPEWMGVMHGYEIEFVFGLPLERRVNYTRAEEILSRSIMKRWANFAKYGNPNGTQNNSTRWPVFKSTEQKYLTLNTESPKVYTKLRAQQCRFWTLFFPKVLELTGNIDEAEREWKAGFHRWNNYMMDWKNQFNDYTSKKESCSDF

SMILES | survival at 14 days [1] | inhibition at 20 µM [2] | ORAC-FL (TE, antioxidant activity in Trolox equivalents) [3] | change in vivo at 15 mg/kg (Sprague-Dawley (SD) rats; [10]) | MIC [4] | MIC [5] | ABTS•+-scavenging activity, TEAC (trolox equivalent antioxidant capacity) [6] | MIC [7] | change in vivo at 15 mg/kg (Sprague-Dawley (SD) rats; [11]) | MIC [8] | MIC [9] | analgesic activity in the hot plate test (Sprague-Dawley (SD) rats; SD rats, dose 15 mg/kg, 1 and 2 h) | IC50 [6] | change in vivo at 15 mg/kg (Sprague-Dawley (SD) rats; 1 h, read-out: Latent Period Prolongation, % 1 h) | change in vivo at 15 mg/kg (Sprague-Dawley (SD) rats; 2 h, read-out: Latent Period Prolongation, % 2 h)
NS(=O)(=O)c1ccc(N/N=C2\C(=O)N(c3ccccc3)N=C2C(F)(F)F)cc1 [5n, (4Z)-4-(2-[4-(Aminosulfonyl)phenyl]hydrazinylidene)-2-phenyl-5-(trifluoromethyl)-2,4-dihydro-3H-pyrazol-3-one] | 100% | 3.5 ± 0.6% | i.t.s. | 84% |  |  |  |  |  |  |  |  |  |  | 
O=C1/C(=N\Nc2ccccc2)C(C(F)(F)F)=NN1c1ccccc1 [5e, (4Z)-2-Phenyl-4-(2-phenylhydrazinylidene)-5-(trifluoromethyl)-2,4-dihydro-3H-pyrazol-3-one] | 100% | 5.1 ± 0.9% | i.t.s. | 129% | 200 µg/mL (≈ 602 µM) | 200 µg/mL (≈ 602 µM) | 0.02 | > 200 µg/mL | 100% | > 250 µg/mL | 200 µg/mL (≈ 602 µM) |  |  |  | 
O=C1/C(=N\Nc2c(Cl)cccc2Cl)C(C(F)(F)F)=NN1c1ccccc1 [5j, (4Z)-4-[2-(2,6-Dichlorophenyl)hydrazinylidene]-2-phenyl-5-(trifluoromethyl)-2,4-dihydro-3H-pyrazol-3-one] | 100% | 7.1 ± 1.2% |  |  | > 200 µg/mL | > 200 µg/mL |  | > 200 µg/mL |  | 31.2 µg/mL (≈ 77.8 µM) | > 200 µg/mL | inactive |  |  | 
O=C1/C(=N\Nc2cccc(Cl)c2)C(C(F)(F)C(F)(F)F)=NN1c1ccccc1 [6d, (4Z)-4-[2-(3-Chlorophenyl)hydrazinylidene]-5-(pentafluoroethyl)-2-phenyl-2,4-dihydro-3H-pyrazol-3-one] | 100% | 7.8 ± 1.2% |  | 63% | > 200 µg/mL | > 200 µg/mL |  | > 200 µg/mL | 93% | 15.6 µg/mL (≈ 37.4 µM) | 200 µg/mL (≈ 480 µM) |  |  |  | 
Cc1ccc(N/N=C2\C(=O)N(c3ccc(C)cc3)N=C2C(F)(F)F)cc1 [5r, (4Z)-2-(4-Methylphenyl)-4-[2-(4-methylphenyl)hydrazinylidene]-5-(trifluoromethyl)-2,4-dihydro-3H-pyrazol-3-one] | 100% | 4 ± 1% |  | 74.2% | > 200 µg/mL | > 200 µg/mL | 0.13 ± 0.007 | > 200 µg/mL | 63.2% | > 250 µg/mL | > 200 µg/mL |  |  |  | 
Cc1ccc(N/N=C2\C(=O)NN=C2C(F)(F)C(F)(F)C(F)(F)C(F)(F)F)cc1 [8a, (4Z)-5-(Nonafluorobutyl)-4-[2-(4-methylphenyl)hydrazinylidene]-2,4-dihydro-3H-pyrazol-3-one] | 100% |  | 2.33 ± 0.15 |  | > 200 µg/mL | > 200 µg/mL | 0.43 ± 0.03 | > 200 µg/mL |  | 250 µg/mL (≈ 595 µM) | > 200 µg/mL |  | 48.3 ± 2.2 µM | 62.9% | 40.4%
Cc1c(N(C)CS(=O)(=O)O)c(=O)n(-c2ccccc2)n1C [metamizole, reference compound] | 100% |  |  | 64.6 ± 22.5% |  |  |  |  | 34.2 ± 11.3% |  |  |  |  |  | 
CN[C@@H]1[C@H](O)[C@H](NC)[C@H]2O[C@@]3(O)C(=O)C[C@@H](C)O[C@H]3O[C@@H]2[C@H]1O [Spectinomycin, reference compound] |  |  |  |  |  |  |  |  |  | 15.6 µg/mL (≈ 46.9 µM) |  |  |  |  | 
